Laboratory results taken from patent US20230242474A1, “LIPID COMPOUND AND THE COMPOSITION THEREOF” (GUANGZHOU RIBOBIO CO., LTD, priority 2020, published 2023).

Assays:
BALB/c mice = test: Transfection efficiency: in vivo bioluminescence of luciferase mRNA encapsulated by different LNP; conditions: for Total photons number, Leg: intramuscular injection; for Average fluorescence intensity, Leg (intramuscular injection) / Average fluorescence intensity, Liver (tail vein injection): 10 μg/mice
Description: All animals were kept in adaptive feeding for more than 7 days before experiments, free to uptake food and drink water during experimental period, illumination 12/12 h alternating light and dark, room temperature was 20-26° C., humidity was 40-70%.
Experimental method: female BALB/c mice, encapsulated luciferase mRNA with different LNP by four different administrations which included subcutaneous injection (under the armpit), tail vein injection, intraperitoneal injection, intramuscular injection (the tibialis anterior muscle of mouse hind leg); 3, 6, 24, 48 h after administration, applied in vivo fluorescence imaging system (brand: Bruker, model: XTREME) for bioluminescence detection, the specific steps were as follows: substrate preparation: took appropriate amount of substrate Luciferin (brand: Promega) and added saline to make a 10 mg/ml solution, avoided light, injected 100 μl solution into each mouse intraperitoneally. […] Put the anesthetized mouse into machine, set the bioluminescence setting and took the photos, captured the photograph and then adjusted the upper and lower values of photograph, then collected data on the concentrated distribution of fluorescence (e.g., fluorescence intensity, average photons number, and total photons number) and processed data. Statistical analysis: the in vivo imaging outcome were shown in the fluorescence intensity or average of total photons number of different animal in the same tested group, which were used to judge whether the fluorescence intensity or total photon number of luciferase mRNA encapsulated by different LNP were high or low.
The fluorescence intensity and total photons number reflects the transfection efficiency of LNP, the value is higher, referring to the efficiency of delivering encapsulated substance into cell by LNP is higher.

[1] = type: physicochemical; conditions: Table 1; for Size (nm): lipid nanoparticle of the ionizable lipid (ionizable lipid/phospholipid/PEG lipid/structural lipid 50/10/1.5/38.5 %) with mRNA; for Encapsulated percentage (%) / PDI: lipid nanoparticle of the ionizable lipid with mRNA

Row | Compound | Total photons number, Leg (BALB/c mice; 1 μg/ mice, 6 h) | Size (nm) [1] [nm] | Encapsulated percentage (%) [1] [%] | PDI [1] | other results
1 | CCCCCCCCOCC(COCCCCCCCC)OC(=O)CCCCCCCN(C)CCCNc1c(NCCCN(C)CCCCCCCC(=O)OC(COCCCCCCCC)COCCCCCCCC)c(=O)c1=O [A31] | 2.65E+08 |  |  |  | Total photons number, Leg (BALB/c mice; 1 μg/ mice, 3 h): 1.58E+08; Total photons number, Leg (BALB/c mice; 1 μg/ mice, 24 h): 8.43E+07
2 | CCCCCCOCC(COCCCCCC)OC(=O)CCCCCCCN(CCCCCCCC(=O)OC(COCCCCCC)COCCCCCC)CCCNc1c(NCCCNc2c(NCCCN(CCCCCCCC(=O)OC(COCCCCCC)COCCCCCC)CCCCCCCC(=O)OC(COCCCCCC)COCCCCCC)c(=O)c2=O)c(=O)c1=O [A30] |  | 110.1 | 98.14 | 0.28 | 
3 | CCCCCCCCCCCOC(=O)CCCCCN(CCO)CCCCCCCC(=O)OC(COCCCCCC)COCCCCCC [A11] | 1.33E+09 |  |  |  | 
4 | CCCCC/C=C/C/C=C/CCCCCCCCN(CCCO)CCCCCCCC(=O)OCC(COCCCCCC)(COCCCCCC)COCCCCCC [A21] |  | 78.3 | 97.20 | 0.098 | Total photons number, Leg (BALB/c mice; 5 μg/mice, 3 h): 9.07E+08; Total photons number, Leg (BALB/c mice; 5 μg/mice, 6 h): 7.11E+08; Total photons number, Leg (BALB/c mice; 5 μg/mice, 24 h): 1.62E+08
5 | CCCCCCCCCCCOC(=O)CCCCCN(CCCO)CCCCCCCC(=O)OCC(COCCCCCC)(COCCCCCC)COCCCCCC [A22] |  | 86.19 | 96.85 | 0.049 | Total photons number, Leg (BALB/c mice; 5 μg/mice, 3 h): 4.16E+09; Total photons number, Leg (BALB/c mice; 5 μg/mice, 6 h): 5.74E+09; Total photons number, Leg (BALB/c mice; 5 μg/mice, 24 h): 1.24E+09
6 | CCCCCCCCCCCCCCCCN(CCO)CCCCCC(=O)OCCCCCCCCCCC [A1] |  | 127.7 | 88.79 | 0.090 | Average fluorescence intensity, Leg (intramuscular injection) (BALB/c mice; 3 h after administration): 61.3; Average fluorescence intensity, Liver (tail vein injection) (BALB/c mice; 3 h after administration): 20.4; Average fluorescence intensity, Leg (intramuscular injection) (BALB/c mice; 6 h after administration): 80.6; Average fluorescence intensity, Liver (tail vein injection) (BALB/c mice; 6 h after administration): 27.80; Average fluorescence intensity, Leg (intramuscular injection) (BALB/c mice; 24 h after administration): 38.9; Average fluorescence intensity, Liver (tail vein injection) (BALB/c mice; 24 h after administration): 15.9
7 | CCCCCCOCC(COCCCCCC)OC(=O)CCCCCCCN(CCCO)CCCCCCCC(=O)OC(COCCCCCC)COCCCCCC [A19] | 4.77E+09 | 110.1 | 88.00 | 0.0923 | Total photons number, Leg (BALB/c mice; 1 μg/ mice, 3 h): 3.69E+09; Total photons number, Leg (BALB/c mice; 1 μg/ mice, 24 h): 7.33E+08
8 | CCCCC/C=C\C/C=C\CCCCCCCCC(CCCCCCCC/C=C\C/C=C\CCCCC)OC(=O)CCCN(C)C [MC3, reference compound] | 7.41E+08 | 86.7 | 92.00 | 0.10 | Total photons number, Leg (BALB/c mice; 1 μg/ mice, 3 h): 3.43E+08; Total photons number, Leg (BALB/c mice; 1 μg/ mice, 24 h): 2.86E+08
9 | CCCCCCCCCCCOC(=O)CCCCCN(CCCCCCCC(=O)OC(COCCCCCC)COCCCCCC)CCCNc1c(NC)c(=O)c1=O [A27] | 1.04E+09 | 94.16 | 96.69 | 0.13 | Total photons number, Leg (BALB/c mice; 1 μg/ mice, 3 h): 1.34E+09; Total photons number, Leg (BALB/c mice; 1 μg/ mice, 24 h): 3.41E+08
10 | CCCCCCOCC(COCCCCCC)OC(=O)CCCCCCCN(CCCCCCCC(=O)OC(COCCCCCC)COCCCCCC)CCCNc1c(NC)c(=O)c1=O [A28] | 4.26E+08 | 91.19 | 89.72 | 0.13 | Total photons number, Leg (BALB/c mice; 1 μg/ mice, 3 h): 6.50E+08; Total photons number, Leg (BALB/c mice; 1 μg/ mice, 24 h): 1.83E+08
11 | CCCCCCCCC(CCCCCCCC)OC(=O)CCCCCCCN(CCO)CCCCCCCC(=O)OC(COCCCCCC)COCCCCCC [A13] | 3.66E+09 | 96.87 | 95.51 | 0.146 | 
12 | CCCCCCOCC(COCCCCCC)OC(=O)CCCCCCCN(CCCO)CCCCCCCCCCCC(=O)OC(COCC)COCC [A26] |  | 120.3 | 83.56 | 0.064 | 
13 | CCCCCCOCC(COCCCCCC)NC(=O)CCCCCCCN(CCCO)CCCCCCCC(=O)OC(COCCCCCC)COCCCCCC [A25] |  | 105.3 | 83.60 | 0.094 | Total photons number, Leg (BALB/c mice; 5 μg/mice, 3 h): 4.23E+08; Total photons number, Leg (BALB/c mice; 5 μg/mice, 6 h): 2.49E+08; Total photons number, Leg (BALB/c mice; 5 μg/mice, 24 h): 9.50E+07
14 | CCCCCCCCC(CCCCCCCC)OC(=O)CCCCCCCN(CCCO)CCCCCCCC(=O)OC(CCCCCCCC)CCCCCCCC [A5] |  | 135.0 | 90.11 | 0.090 | Average fluorescence intensity, Leg (intramuscular injection) (BALB/c mice; 3 h after administration): 675.7; Average fluorescence intensity, Liver (tail vein injection) (BALB/c mice; 3 h after administration): 2231.2; Average fluorescence intensity, Leg (intramuscular injection) (BALB/c mice; 6 h after administration): 1566.4; Average fluorescence intensity, Liver (tail vein injection) (BALB/c mice; 6 h after administration): 3738.2; Average fluorescence intensity, Leg (intramuscular injection) (BALB/c mice; 24 h after administration): 892.2; Average fluorescence intensity, Liver (tail vein injection) (BALB/c mice; 24 h after administration): 73.5
15 | CCCCC/C=C/C/C=C/CCCCCCCCN(CCO)CCCCCCCC(=O)OCC(COCCCCCC)(COCCCCCC)COCCCCCC [A20] |  | 77.17 | 97.09 | 0.121 | Total photons number, Leg (BALB/c mice; 5 μg/mice, 3 h): 5.99E+08; Total photons number, Leg (BALB/c mice; 5 μg/mice, 6 h): 5.65E+08; Total photons number, Leg (BALB/c mice; 5 μg/mice, 24 h): 2.03E+08
16 | CCCCCCCCC(CCCCCCCC)OC(=O)CCCCCCCN(CCO)CCCCCCCC(=O)OC(CCCCCCCC)CCCCCCCC [A2, reference compound] |  | 145.5 | 87.86 | 0.100 | Average fluorescence intensity, Leg (intramuscular injection) (BALB/c mice; 3 h after administration): 1146; Average fluorescence intensity, Liver (tail vein injection) (BALB/c mice; 3 h after administration): 5325.2; Average fluorescence intensity, Leg (intramuscular injection) (BALB/c mice; 6 h after administration): 1208.2; Average fluorescence intensity, Liver (tail vein injection) (BALB/c mice; 6 h after administration): 5934.7; Average fluorescence intensity, Leg (intramuscular injection) (BALB/c mice; 24 h after administration): 377.7; Average fluorescence intensity, Liver (tail vein injection) (BALB/c mice; 24 h after administration): 162.6
17 | CCCCCCCCCCCOC(=O)CCCCCN(CCCO)CCCCCCCC(=O)OC(CCCCCCCC)CCCCCCCC [A4, reference compound] |  | 131.1 | 79.24 | 0.110 | Average fluorescence intensity, Leg (intramuscular injection) (BALB/c mice; 3 h after administration): 1847.5; Average fluorescence intensity, Liver (tail vein injection) (BALB/c mice; 3 h after administration): 7962.6; Average fluorescence intensity, Leg (intramuscular injection) (BALB/c mice; 6 h after administration): 1956.2; Average fluorescence intensity, Liver (tail vein injection) (BALB/c mice; 6 h after administration): 7745.9; Average fluorescence intensity, Leg (intramuscular injection) (BALB/c mice; 24 h after administration): 1009.7; Average fluorescence intensity, Liver (tail vein injection) (BALB/c mice; 24 h after administration): 326.4
18 | CCCCCCCCC(CCCCCCCC)OC(=O)CCCCCCCN(CCCO)CCCCCCCC(=O)OC(COCCCCCC)COCCCCCC [A17] |  | 109.5 | 92.99 | 0.1037 | 
19 | CCCCCCOCC(COCCCCCC)(COCCCCCC)COC(=O)CCCCCCCN(CCO)CCCCCCCC(=O)OCC(COCCCCCC)(COCCCCCC)COCCCCCC [A24] |  | 78.69 | 96.77 |  | Total photons number, Leg (BALB/c mice; 5 μg/mice, 3 h): 1.94E+08; Total photons number, Leg (BALB/c mice; 5 μg/mice, 6 h): 1.56E+08; Total photons number, Leg (BALB/c mice; 5 μg/mice, 24 h): 6.31E+07
20 | CCCCC/C=C/C/C=C/CCCCCCCCN(CCCO)CCCCCCCC(=O)OC(COCCCCCC)COCCCCCC [A15] | 8.78E+08 |  |  |  | 
21 | CCCCCCOCC(COCCCCCC)OC(=O)CCCCCCCN(C)CCCNc1c(NCCCNc2c(NCCCN(C)CCCCCCCC(=O)OC(COCCCCCC)COCCCCCC)c(=O)c2=O)c(=O)c1=O [A32] |  | 128.7 | 94.19 | 0.07 | 
22 | CCCCCCOCC(COCCCCCC)OC(=O)CCCCCCCN(CCCCCCCC(=O)OC(COCCCCCC)COCCCCCC)CCCNc1c(NCCCNc2c(NC)c(=O)c2=O)c(=O)c1=O [A29] |  | 126.4 | 89.98 | 0.05 | 
